{"source": "patent US10945932B2", "about": "“Prebiotic oral care compositions containing carboxylic acids” (COLGATE-PALMOLIVE COMPANY, priority 2013, dated 2021)", "key": {"Capnocytophaga sputigena [1]": {"test_system": "Capnocytophaga sputigena", "assay": "Biofilm growth assay in BHI, crystal violet", "format": "cell-based", "conditions": "C sputigena", "procedure": "(§1) Late exponential growth phase liquid cultures were prepared by transferring the respective bacterium from blood agar plates to BHI and overnight incubation at 37° C. in an anaerobic atmosphere for A. viscosus, V. parvula, F. nucleatum, P. gingivalis, P. intermedia, T. forsythia, A. naeslundii, and C. sputigena, and in a 5% CO2 environment for S. salivarius, S. sanguinis, S. mitis, A. actinomycetemcomitans, S. mutans, and S. gordonii. […] Additionally, for each bacterium tested, a background control, to correct for background staining, was added. This background control contained the bacterium tested and 0.03 weight % chlorhexidine, as an antiseptic. Plates were incubated as previously described. After 48 hrs the supernatant was removed from the wells of the plates. The wells were washed twice with 1×100 μL/PBS (phosphate buffered saline), fixed for 20 minutes with 96% vol. ethanol (96% vol. solution in water) and the biofilm retained at the bottom of the wells was stained with 1 weight % crystal violet (1 weight % solution in water). […] Quantification of the stained biofilm was performed by measuring the absorbance at 630 nm using a Multiskan Ascent microplate reader (Thermo Scientific)."}, "[2]": {"test_system": "Aggregatibacter actinomycetemcomitans", "assay": "Biofilm growth assay in BHI, crystal violet", "format": "cell-based", "conditions": "A actinomycetemcomitans", "procedure": "as §1"}, "Porphyromonas gingivalis": {"test_system": "Porphyromonas gingivalis", "assay": "Biofilm growth assay in BHI, crystal violet", "format": "cell-based", "conditions": "P gingivalis", "procedure": "as §1"}, "Actinomyces viscosus": {"test_system": "Actinomyces viscosus", "assay": "Biofilm growth assay in BHI, crystal violet", "format": "cell-based", "conditions": "A viscosus", "procedure": "as §1"}, "Veillonella parvula": {"test_system": "Veillonella parvula", "assay": "Biofilm growth assay in BHI, crystal violet", "format": "cell-based", "conditions": "V parvula", "procedure": "as §1"}, "Streptococcus gordonii": {"test_system": "Streptococcus gordonii", "assay": "Biofilm growth assay in BHI, crystal violet", "format": "cell-based", "conditions": "S gordonii", "procedure": "as §1"}, "Prevotella intermedia": {"test_system": "Prevotella intermedia", "assay": "Biofilm growth assay in BHI, crystal violet", "format": "cell-based", "conditions": "P intermedia", "procedure": "as §1"}, "Streptococcus mutans": {"test_system": "Streptococcus mutans", "assay": "Biofilm growth assay in BHI, crystal violet", "format": "cell-based", "conditions": "S mutans", "procedure": "as §1"}, "Fusobacterium nucleatum": {"test_system": "Fusobacterium nucleatum", "assay": "Biofilm growth assay in BHI, crystal violet", "format": "cell-based", "conditions": "F nucleatum", "procedure": "as §1"}, "Capnocytophaga sputigena [3]": {"test_system": "Capnocytophaga sputigena", "conditions": "C sputigena, BHI", "method": "Late exponential growth phase liquid cultures were prepared by transferring the respective bacterium from blood agar plates to BHI and overnight incubation at 37° C. in an anaerobic atmosphere for A. viscosus, V. parvula, F. nucleatum, P. gingivalis, P. intermedia, T forsythia, A. naeslundii, and C. sputigena, and in a 5% CO2 environment for S. salivarius, S. sanguinis, S. mitis, A. actinomycetemcomitans, S. mutans, S. sobrinus and S. gordonii. Overnight cultures were transferred to BHI and adjusted to a concentration of 1×10^7 CFU/ml (colony forming units per ml) by measuring the optical density at 600 nm (OD600) (BioRad SmartSpec 3000). For each strain, 200 μl of the bacterial suspension was added to a 96-well plate containing 20 μl of the respective carboxylic acids. Final concentrations of the carboxylic acids were set to 5, 10, 20 and 25 μmol/ml. […] Plates were incubated as previously described.\nFor each combination of bacterium/carboxylic acid, and for each of their respective controls (i.e. the particular bacterium in the nutritionally rich medium with no carboxylic acid), the optical density was measured at 630 nm (OD630) at 0 h, 24 h and 48 h (Thermo Scientific Multiskan Ascent). Additionally, the OD630 for combinations of bacterium/carboxylic acid grown in a 5% CO2 environment were also measured every hour between 0 h and 9 h.\nThe experiment was carried out on three different days (thus providing 3 biological replicas) and on each day the experiment was carried out in quadruple (thus providing 4 technical replicas) for each combination of bacterium with carboxylic acid and for each control. For each day and for each combination, the average (mean) of the values obtained (as detailed above) for the four technical replicas was calculated to provide a single value for each combination on each day."}}, "note": "Like-named read-outs stand apart in the source and are kept apart here.", "data": [{"smiles": "O=C(O)CCC(=O)O", "note": "[Succinic acid, succinic acid]", "values": [{"measurement": "biofilm growth, OD at 630 nm (crystal violet) at 48 hrs divided by OD of control (control = 1)", "setting": "Capnocytophaga sputigena [1]; 20 μmol/ml", "result": 0.2256}, {"measurement": "biofilm growth, OD at 630 nm (crystal violet) at 48 hrs divided by OD of control (control = 1)", "setting": "Capnocytophaga sputigena [1]; 25 μmol/ml", "result": 0.3202}, {"measurement": "biofilm growth, OD at 630 nm (crystal violet) at 48 hrs divided by OD of control (control = 1)", "setting": "[2]; 5 μmol/ml", "result": 0.6941}, {"measurement": "biofilm growth, OD at 630 nm (crystal violet) at 48 hrs divided by OD of control (control = 1)", "setting": "[2]; 10 μmol/ml", "result": 0.5093}, {"measurement": "biofilm growth, OD at 630 nm (crystal violet) at 48 hrs divided by OD of control (control = 1)", "setting": "[2]; 20 μmol/ml", "result": 0.0593}, {"measurement": "biofilm growth, OD at 630 nm (crystal violet) at 48 hrs divided by OD of control (control = 1)", "setting": "[2]; 25 μmol/ml", "result": 0.0581}, {"measurement": "biofilm growth, OD at 630 nm (crystal violet) at 48 hrs divided by OD of control (control = 1)", "setting": "Porphyromonas gingivalis; 5 μmol/ml", "result": 1.0520}, {"measurement": "biofilm growth, OD at 630 nm (crystal violet) at 48 hrs divided by OD of control (control = 1)", "setting": "Porphyromonas gingivalis; 10 μmol/ml", "result": 1.0031}, {"measurement": "biofilm growth, OD at 630 nm (crystal violet) at 48 hrs divided by OD of control (control = 1)", "setting": "Porphyromonas gingivalis; 20 μmol/ml", "result": 0.1065}, {"measurement": "biofilm growth, OD at 630 nm (crystal violet) at 48 hrs divided by OD of control (control = 1)", "setting": "Porphyromonas gingivalis; 25 μmol/ml", "result": 0.1691}, {"measurement": "biofilm growth, OD at 630 nm (crystal violet) at 48 hrs divided by OD of control (control = 1)", "setting": "Actinomyces viscosus; 5 μmol/ml", "result": 0.3969}, {"measurement": "biofilm growth, OD at 630 nm (crystal violet) at 48 hrs divided by OD of control (control = 1)", "setting": "Actinomyces viscosus; 10 μmol/ml", "result": 0.3190}, {"measurement": "biofilm growth, OD at 630 nm (crystal violet) at 48 hrs divided by OD of control (control = 1)", "setting": "Actinomyces viscosus; 20 μmol/ml", "result": 0.0498}, {"measurement": "biofilm growth, OD at 630 nm (crystal violet) at 48 hrs divided by OD of control (control = 1)", "setting": "Actinomyces viscosus; 25 μmol/ml", "result": 0.0622}, {"measurement": "biofilm growth, OD at 630 nm (crystal violet) at 48 hrs divided by OD of control (control = 1)", "setting": "Veillonella parvula; 5 μmol/ml", "result": 0.9059}, {"measurement": "biofilm growth, OD at 630 nm (crystal violet) at 48 hrs divided by OD of control (control = 1)", "setting": "Veillonella parvula; 10 μmol/ml", "result": 1.0118}, {"measurement": "biofilm growth, OD at 630 nm (crystal violet) at 48 hrs divided by OD of control (control = 1)", "setting": "Veillonella parvula; 20 μmol/ml", "result": 1.1681}, {"measurement": "biofilm growth, OD at 630 nm (crystal violet) at 48 hrs divided by OD of control (control = 1)", "setting": "Veillonella parvula; 25 μmol/ml", "result": 1.4334}, {"measurement": "biofilm growth, OD at 630 nm (crystal violet) at 48 hrs divided by OD of control (control = 1)", "setting": "Streptococcus gordonii; 5 μmol/ml", "result": 2.3866}, {"measurement": "biofilm growth, OD at 630 nm (crystal violet) at 48 hrs divided by OD of control (control = 1)", "setting": "Streptococcus gordonii; 10 μmol/ml", "result": 4.4978}, {"measurement": "biofilm growth, OD at 630 nm (crystal violet) at 48 hrs divided by OD of control (control = 1)", "setting": "Streptococcus gordonii; 20 μmol/ml", "result": 1.6591}, {"measurement": "biofilm growth, OD at 630 nm (crystal violet) at 48 hrs divided by OD of control (control = 1)", "setting": "Streptococcus gordonii; 25 μmol/ml", "result": 0.5512}, {"measurement": "biofilm growth, OD at 630 nm (crystal violet) at 48 hrs divided by OD of control (control = 1)", "setting": "Prevotella intermedia; 5 μmol/ml", "result": 0.8344}, {"measurement": "biofilm growth, OD at 630 nm (crystal violet) at 48 hrs divided by OD of control (control = 1)", "setting": "Prevotella intermedia; 10 μmol/ml", "result": 0.7023}, {"measurement": "biofilm growth, OD at 630 nm (crystal violet) at 48 hrs divided by OD of control (control = 1)", "setting": "Prevotella intermedia; 20 μmol/ml", "result": 0.0589}, {"measurement": "biofilm growth, OD at 630 nm (crystal violet) at 48 hrs divided by OD of control (control = 1)", "setting": "Prevotella intermedia; 25 μmol/ml", "result": 0.1442}, {"measurement": "biofilm growth, OD at 630 nm (crystal violet) at 48 hrs divided by OD of control (control = 1)", "setting": "Streptococcus mutans; 5 μmol/ml", "result": 0.0053}, {"measurement": "biofilm growth, OD at 630 nm (crystal violet) at 48 hrs divided by OD of control (control = 1)", "setting": "Streptococcus mutans; 10 μmol/ml", "result": 0.2498}, {"measurement": "biofilm growth, OD at 630 nm (crystal violet) at 48 hrs divided by OD of control (control = 1)", "setting": "Streptococcus mutans; 20 μmol/ml", "result": 1.9127}, {"measurement": "biofilm growth, OD at 630 nm (crystal violet) at 48 hrs divided by OD of control (control = 1)", "setting": "Streptococcus mutans; 25 μmol/ml", "result": 0.9686}, {"measurement": "biofilm growth, OD at 630 nm (crystal violet) at 48 hrs divided by OD of control (control = 1)", "setting": "Fusobacterium nucleatum; 5 μmol/ml", "result": 2.7146}, {"measurement": "biofilm growth, OD at 630 nm (crystal violet) at 48 hrs divided by OD of control (control = 1)", "setting": "Fusobacterium nucleatum; 10 μmol/ml", "result": 5.3887}, {"measurement": "biofilm growth, OD at 630 nm (crystal violet) at 48 hrs divided by OD of control (control = 1)", "setting": "Fusobacterium nucleatum; 20 μmol/ml", "result": 0.5404}, {"measurement": "biofilm growth, OD at 630 nm (crystal violet) at 48 hrs divided by OD of control (control = 1)", "setting": "Fusobacterium nucleatum; 25 μmol/ml", "result": 0.1087}, {"measurement": "extent of growth, maximal OD630 over 48 hr divided by maximal OD of control (control = 1)", "setting": "Capnocytophaga sputigena [3]; 5 μmol/ml", "result": 0.9743}, {"measurement": "extent of growth, maximal OD630 over 48 hr divided by maximal OD of control (control = 1)", "setting": "Capnocytophaga sputigena [3]; 10 μmol/ml", "result": 0.7668}, {"measurement": "extent of growth, maximal OD630 over 48 hr divided by maximal OD of control (control = 1)", "setting": "Capnocytophaga sputigena [3]; 20 μmol/ml", "result": 0.6198}, {"measurement": "extent of growth, maximal OD630 over 48 hr divided by maximal OD of control (control = 1)", "setting": "Capnocytophaga sputigena [3]; 25 μmol/ml", "result": 0.4571}]}]}
